Laboratory results published in patent publication EP0866074A1, “NOVEL NK374186 ANALOGUES OR PHARMACOLOGICALLY ACCEPTABLE SALTS THEREOF” (NIPPON KAYAKU KABUSHIKI KAISHA, priority 1995, dated 1996).
In brackets after ≈: the same amount, converted by molar mass.

Columns and labels:
[1] = test system: Human peripheral T cells; experiment: Blastoid transformation via OKT-3 (3H-thymidine incorporation); format: cell-based; details: 2 ng/ml OKT-3 antibody, 72-hr cultivation
Description: For cultivation, RPMI 1640 medium supplemented with 10 % calf fetus serum, 25 mM HEPS buffer, 100 µg/ml streptomycin […] and 100 units/ml penicillin G in a 96-well flat-bottom microplate (coaster) was used. As a mitogen, 2 ng/ml OKT-3 antibody was used.
Human peripheral T cells Were collected from blood drawn with heparin by the density-gradient centrifugation method. 200,000 cells and test compounds at individual concentrations were added to each well to a total volume of 0.2 ml, for 72-hr cultivation. Eight hours before termination of the cultivation, 37 kBq ^3H - thymidine was added to determine the incorporation thereof into the cells. The effects were evaluated on the basis of the ratio of the incorporated ^3H - thymidine in the groups with addition of the test compounds to the incorporated ^3H - thymidine in the control group (Japanese Immunology Association, Methods for Experiment Immunology, pp. 2267 - 2276).

[2] = test system: graft vs host reaction; experiment: Graft vs host reaction (GVH), spleen weight method; format: in vivo, mouse; details: for Spleen weight/body weight: spleen weighed 7 days after transplantation, BDF mouse; for Index: relative to Untreated = 1.00
Description: The spleen weight method by Fords, et al. [W.L. Ford et al., Handbook of Experimental Immunology 30, D.M. Weir, ed., Blackwell Scientific Publications, 1978, pp. 1] was followed. Spleen cells of 5×10^6, separated from a C57BL/6 mouse (8 weeks of age, male) as a donor, were transplanted peritoneally in a BDF mouse (7 weeks of age, male) as a recipient. Simultaneously, NK374186, a control agent or a solvent control (0.25 % gum arabic) was injected subcutaneously in the dorsal skin of the BDF mouse. The NK374186 and the control agent were preliminarily dissolved in 0.25 % gum arabic. Furthermore, on day 1 and day 2, the same administration was conducted, and 7 days after the transplantation, the spleen was weighed.

[3] = test system: cell line A2780 derived from human ovarian cancer; experiment: Suppression of cancer cell proliferation (MTT method); format: cell-based
Description: Cells were cultured in an RPMI culture medium supplemented with 10 % calf fetus serum in the presence of 5 % CO2 at 37 °C. The cells were inoculated and cultured in a 96-well plate for one day, followed by addition of one of the pharmaceutical compounds. The cells were treated with the compounds for 3 days, and the effects were assessed by the proliferation-suppressed MTT method. The activities of the compounds on the suppression of the proliferation of Cancer cells are shown below. The cancer cells were of a cell line A2780 derived from human ovarian cancer.

In the case of `CCCCCCCCCCCCCC1OC(=O)C(COC(C)=O)NC(=O)C(C(C)OP(=O)(O)O)NC(=O)C(C(C)C)NC(=O)C(C)C(O)C1C` (stereo not shown) [NK374186P], the “ratio of the incorporated 3H-thymidine in the groups with addition of the test compounds to the control group” value (“ratio of the incorporated 3H-thymidine” for short) ([1]; Concentration 0.03 (unit not given)) is reported as 99.6, the “ratio of the incorporated 3H-thymidine” value ([1]; Concentration 0.1 (unit not given)) is reported as 100.6 and the “ratio of the incorporated 3H-thymidine” value ([1]; Concentration 0.3 (unit not given)) is reported as 102.6. For the same compound, the “ratio of the incorporated 3H-thymidine” value ([1]; Concentration 1.0 (unit not given)) was 119.7, the “ratio of the incorporated 3H-thymidine” value ([1]; Concentration 3.0 (unit not given)) was 131.4 and the “ratio of the incorporated 3H-thymidine” value ([1]; Concentration 10.0 (unit not given)) was 97.7. The “ratio of the incorporated 3H-thymidine” value ([1]; Concentration 30.0 (unit not given)) was 69.3, the Spleen weight/body weight ([2]; Dose 0.5 mg/kg subcutaneously on day 0, 1 and 2) was 10.01 X10^-3 and the Index ([2]; Dose 0.5 mg/kg) was 2.07. The Spleen weight/body weight ([2]; Dose 5.0 mg/kg subcutaneously on day 0, 1 and 2) was 11.45 X10^-3, the Index ([2]; Dose 5.0 mg/kg) was 2.37 and the Spleen weight/body weight ([2]; Dose 50.0 mg/kg subcutaneously on day 0, 1 and 2) was 12.00 X10^-3. For the same compound, the Index ([2]; Dose 50.0 mg/kg) was 2.48, the “effect on GVH” value ([2]; result in words, summary of Table 3, ratio of spleen weight to body weight increases depending on the dose) was “significant GVH suppression” and the IC50 ([3]; Homo sapiens, 72 h, A2780 cells, treated for 3 days, MTT method) was 33 µg/mL (≈ 44.8 µM). For the same compound, the “activities on the suppression of the proliferation of the cancer cells” value ([3]; result in words, summary of Table 1) was “have activities on the suppression of the proliferation of the cancer cells”.
